The source of these data is patent US20240091328A1, “FORMULATIONS AND METHODS FOR MHC-I RESTRICTED EPITOPE IMMUNIZATION” (The Research Foundation for The State University of New York, priority 2021, published 2024).

Structures can show the parent of a compound that is named as a salt.

For assay [1], the system named is CT26 cells. As to the kind of experiment: Experimental lung metastasis tumor model, CT26. Type of assay: in vivo, BALB/c mice. Particulars: 1000 ng (total) peptides with CPQ, 1 and 8 days after i.v. CT26. The procedure:
Tumor challenge: For the prophylactic vaccine tumor model, mice were vaccinated on day 0 and 7, and challenged on day 14. For testing the long-term protection of vaccine, mice were challenged on day 80. For the therapeutic vaccine tumor model, mice were inoculated with tumor cells subcutaneously on day 0, and then vaccinated with indicated vaccine on days 5 and 12. Tumor growth was monitored three times a week and tumor sizes were calculated by equation: Tumor volume=length×width^2/2. Animals were euthanized when the tumor sizes reached 1 cm in diameter or when animals developed an ulceration. For the experimental lung metastasis tumor model, animals were injected intravenously via tail vein with tumor cells on day 0, then were left untreated or treated with intramuscular injection with the indicated vaccines on day 2 and 9 for the A5 vaccine studies or day 1 and 8 for the RragcL385P, Tmem5S71N or EML5G44R peptide screening studies. Lungs were excised and stained with Bouin's solution (Sigma Catalog: HT10132) on day 18 for mice injected with CT26 cells and on day 16 for mice injected with 4T1 cells. Tumor nodules were counted manually and lung weights were measured.

The subject of assay [2] is IFN-γ and TNF-α producing CD8^+ T cells. Put plainly: Intracellular IFN-γ / TNF-α staining of splenocytes after antigen re-stimulation. The assay is classed as in vivo, BALB/c mice. Particulars: mice vaccinated with CPQ and 20 RENCA peptides. The method, then:
For Intracellular staining: 100 μL of 1×10^6 splenocytes were seeded in a flat bottom 96 wells plate and stimulated with 10 μg/mL antigen for 15-18 hours in the cell culture incubator. Then Brefeldin A was added to the plates with a dilution of 1000× for another 5 hours. Cells were transferred to a round bottom 96 wells plate and centrifuged at 1350 rpm for 3 mins, the cell pellets were washed twice and stained with 500× live/dead fixable dye, 200× diluted APC anti-mouse CD8, 200× diluted FITC anti-mouse CD4, 200× diluted PE/Cy7 anti-mouse CD62L and 200× diluted PerCP/Cy5.5 […] 25 min at 4° C. with shaking. Cells were washed twice and fixed and permeabilized by fixation/permeabilization buffer for 20 min at 4° C. Cells were washed twice with perm wash buffer and stained with 200× diluted pacific blue anti-mouse IFN-γ and 200× diluted PE anti-mouse TNF-α for 30 min on ice. Cells were washed twice by perm/wash buffer for flow cytometry.

For assay [3], the system named is IFN-γ producing CD8^+ T cells. As to the kind of experiment: Intracellular IFN-γ in CD8+ T cells of re-stimulated PBMCs. The assay is classed as in vivo, C57BL/6 mice. The following applies: multivalent E6/E7 vaccine, 100 ng each peptide. The procedure:
The E6 and E7 genes of TC-1 cells were sequenced from extracted DNA using Sanger sequencing. Six predicted H-2K^b- and H-2D^b-restricted epitopes within the top percentile of MHC-I binders were identified using a neural network simulation algorithm. […] These 6 peptides were combined with CPQ to form a single multivalent vaccine for mice and the immunogenicity of each peptide were assessed by Interferon gamma (IFN-γ production after individual peptide stimulation of collected peripheral blood mononuclear cells (PBMCs). Mice were then challenged with TC-1 cells subcutaneously to assess the tumor protection of the vaccine (FIG. 21A).
Collected PBMCs were re-stimulated with the epitope candidates that comprised the multivalent vaccine after which CD8^+ T cells were assessed for intracellular IFN-γ production, indicating the induction of Ag-specific CD8^+ T cells. […] When PBMCs from mice injected with the non-particle forming 2HPQ/peptides were re-stimulated with the peptides, none induced IFN-γ producing CD8^+ T cells (FIG. 21E).

Assay [4] concerns TC-1 cells. Put plainly: Prophylactic vaccine tumor model, subcutaneous TC-1 challenge. The assay is classed as in vivo, C57BL/6 mice. Particulars: days 0 and 7, challenge day 14. From the text:
To determine immunogenicity, C57BL/6 mice were then vaccinated intramuscularly with the multivalent vaccine on days 0 & 7, and peripheral blood mononuclear cells (PBMCs) were collected and mice challenged with TC-1 tumor cells on day 14. […] Thus, the presentation of the peptides in the form of a particle, even with identical amounts of QS-21 and MPLA, appeared to be important for inducing memory CD8^+ T cells.
Next, to determine which of the peptide epitopes provided anti-tumor activity, peptides were admixed individually with CPQ or 2HIPQ liposomes (FIG. 22A). Individually, all of the peptides effectively bound to CPQ liposomes, but not to 2HIPQ liposomes lacking cobalt (FIG. 22B). Liposome size remained ˜100 nm after binding with E6 and E7 peptides (FIG. 22C). Next, mice were vaccinated with the peptides admixed with CPQ on days 0 & 7 at a peptide dose of 500 ng. Each mouse was then challenged with TC-1 cells on day 14. […]
Tumor challenge: For the prophylactic vaccine tumor model, mice were vaccinated on day 0 and 7, and challenged on day 14. […] Tumor growth was monitored three times a week and tumor sizes were calculated by equation: Tumor volume=length×width^2/2. […] Tumor nodules were counted manually and lung weights were measured.

The subject of assay [5] is RENCA cells. Put plainly: Prophylactic vaccine tumor model, subcutaneous RENCA challenge. Type of assay: in vivo, BALB/c mice. Particulars: single peptide with CoPoP liposome, days 0 and 7, RENCA day 14. The method, then: Multivalent vaccine was prepared by first incubate all 20 peptides with CPQ and 2HPQ liposome for a hour at room temperature with a mass ratio of 1:4. The binding percentage of peptides was assessed by peptide filtration assay. […] There was no significant change of sizes of liposome before or after binding, which were around 100 nm (FIG. 19B). The polydispersity index of liposomes is smaller than 0.25 (FIG. 19C). Mice were vaccinated with CPQ/peptides on day0 & 7, the injection dose is 50 ng per peptide and lug total peptide per mouse. Mice were then challenged with RENCA cells subcutaneously on day14.
To confirm which peptide was responsible to the anti-tumor efficacy of the vaccine, we admixed single peptide with CoPoP liposome as a vaccine to inject BALB/c mice. These 20 vaccines were injected to 20 groups of BALB/c mice on day 0 & 7, RENCA cells were inoculated on day14.
Tumor challenge: For the prophylactic vaccine tumor model, mice were vaccinated on day 0 and 7, and challenged on day 14. For testing the long-term protection of vaccine, mice were challenged on day 80. […] Tumor growth was monitored three times a week and tumor sizes were calculated by equation: Tumor volume=length×width^2/2. […] Tumor nodules were counted manually and lung weights were measured.

Assay [6] deals with RENCA cells. As to the kind of experiment: Cell lysis by splenocyte effector cells, LDH release, RENCA targets. The assay is classed as cell-based, mouse. The following applies: single peptide vaccine. The method, then: FIG. 20. […] BALB/c mice were immunized with CPQ/peptide vaccine on day 0 & 7, then inoculated with RENCA cells subcutaneously on day 14. (A) Tumor sizes of mice vaccinated with CPQ admixed with indicated peptide 18 days post tumor inoculation. Splenocytes were prepared 18 days post tumor inoculation and cultured in vitro for 5 days then stimulated with antigens and served as Effector cells (E), tumor cells were target cells (T). Effector cells were incubated with target cells for 5 hours, then specific lysis was analyzed by the nonradioactive LDH release assay by following the manufacturer's instructions. Percent cell lysis of RENCA cells (B) and percent cell lysis of irrelevant TC-1 cells (C). Error bars show mean+/−std. dev. for n=5 independent experiments.
For Cytotoxic T lymphocyte (CTL) cytotoxicity assay, isolated splenocytes were cultured in the cell culture medium and stimulated by mouse IL-2 (Pepro tech; catalog: 212-12; 10 IU/mL) and antigens (10 μg/mL) for 5 days to use as the effector cells. 5000 CT26 cells were seeded in a 96 wells plate and pulsed with 10 μg/mL antigens for 1 hour, then splenocytes were added to the plate at different E:T ratios for 5 hours. The cytotoxicity of splenocytes on tumor cells was assessed by lactate dehydrogenase (LDH) release using Non-Radioactive Cytotoxicity Assay Kit (Promega; catalog: G1780) according to manufacturer instructions.
On the technique in general: Release of lactate dehydrogenase indicates damage to the cell membrane.

The subject of assay [7] is RAW264.7 murine macrophage cells. Put plainly: In vitro cell uptake of A5-HiLyte488, macrophages. Type of assay: cell-based, mouse. The following applies: cells pre-incubated with inhibitor 10 μg/mL for an hour, CPQ/A5. The method, then:
For in vitro cell uptake studies, RAW264.7 cells (2.5×10^5 per well) and BMDCs (2.5×10^5 per well) were cultured in a 24-well plates overnight, then treated with CPQ/A5-HiLyte488, 2HPQ/A5-HiLyte488 and PBS/A5-HiLyte488 (peptide concentration of 1 μg/mL) for 10 min, 30 min or an hour. For phagocytosis and endocytosis inhibitor study, cells were first pre-incubated with cytochalasin B (10 μg/ml) or chlorpromazine (10 μg/mL) for an hour before the cell uptake study. Cells were washed and lysed with 0.1% Triton X-100 and 10 mM dithiothreitol (DTT). The fluorescence signals were measured before and after adding DTT. Cellular A5-HiLyte488 uptakes were calculated by preparing an A5-HiLyte488 standard curve.

Assay [8] deals with IFN-γ. Put plainly: In vivo peptide micro-library screening, IFN-γ ELISA of re-stimulated splenocytes relative to A5. Also noted: species or system mice. Particulars: rank among 100 micro-library peptides; IFN-γ on re-stimulation relative to A5; 5 peptides plus A5 with CPQ. The procedure: Mice were immunized with 5 library peptides at a time, along with the A5 peptide, with all peptides combined and admixed with CPQ. After two intramuscular injections, splenocytes were collected, and then re-stimulated with each of the synthetic micro-library peptides, individually. Production of IFN-γ was measured and peptide immunogenicity was determined relative to the A5 peptide, which served as in internal control that could induce strong Ag-specific CD8^+ T cell responses.
For Ag screening, multivalent vaccine composed of peptide with the same MHC-I haplotypes (H-2L^d, H-2D^d, or H-2K^d) and the internal A5 peptide were admixed with CPQ. After immunization, only ˜10% of MHC-I binding peptides induced T cells in splenocytes that produced IFN-γ with peptide re-stimulation, and none were nearly as effective as A5 (FIG. 16B). The most highly immunogenic peptides only produced about a quarter of the level of IFN-γ relative to A5. […] It is also feasible that immunization with higher antigen doses of single individual peptides could have induced stronger immunogenic responses, although this would decrease the in vivo peptide micro-library screening throughput.
IFN-γ ELISA: 2.5×10^5 splenocytes were seeded in a 96 wells plate and stimulated with 10 μg/mL antigens for 72 hr. 50 μL of supernatant was collected from each well and subjected to Interferon gamma ELISA (Thermofisher; catalog: BMS606TEN) according to manufacturer protocol.
A general note: ELISA stands for enzyme-linked immunosorbent assay.

For “Eml5G44R: 9-mer neoantigen peptide; tagged forms CT71 and 3his-CT71 (VYFVAGVRV)”, in assay [1], the Lung nodules result is given as “no significant difference”.

Consider “3His-GYHESGHAI (HHHGYHESGHAI; N-terminal 3His tag; Renca_8)”, for which the “IFN-γ producing CD8^+ T cells in the spleen after stimulation with individual peptide” value in assay [2] is approximately 5%.

Take “H3-TLHEYMLDL (HHHTLHEYMLDL; H3 N-terminal flank; E76-14)”: the “IFN-γ producing cells of CD8+ T cells over background after peptide re-stimulation of PBMCs” value in assay [3] is “higher percentage”. Consider “H3-RAHYNIVTF (HHHRAHYNIVTF; H3 N-terminal flank; E749-57)”, for which the “IFN-γ producing cells of CD8+ T cells over background after peptide re-stimulation of PBMCs” value in assay [3] is “higher percentage”. Moreover, the Tumor-free survival maintained result in assay [4] (500 ng peptide with CPQ) is “at least 60 days”. In assay [4] (500 ng peptide), the “Tumor growth after TC-1 challenge, single peptide with CPQ” value is reported as “inhibited tumor growth”. On to “Tmem5S71N: 9-mer neoantigen peptide; tagged forms CT96 and 3his-CT96 (VVEANWTML) (HHHVVEANWTML; N-terminal 3His tag; 3his-CT96/Tmem5S71N)”, for which the Lung nodules result in assay [1] was “no significant difference”. Regarding “3His-AYTTQREEL (HHHAYTTQREEL; N-terminal 3His tag; Renca_2)”, the “Tumor growth, single peptide vaccine” value in assay [5] was “inhibited tumor growth”. In assay [6], the “Lysis of RENCA cells by T cells of vaccinated mice” value is listed as “induced functional T cells that specific targets to RENCA cells”. Besides, in assay [2], the “IFN-γ producing CD8^+ T cells in the spleen after stimulation with individual peptide” value is reported as “around 2%”. Consider `C=C1[C@@H](C)[C@H]2[C@H](Cc3ccccc3)NC(=O)[C@]23OC(=O)/C=C/[C@H](O)CCC[C@@H](C)C/C=C/[C@H]3[C@@H]1O` [cytochalasin B], for which, in assay [7], the “A5 peptide uptake by macrophages in the presence of inhibitor” value is “significantly less”. “H3-STHVDIRTL (HHHSTHVDIRTL; H3 N-terminal flank; E771-79)”: the “IFN-γ producing cells of CD8+ T cells over background after peptide re-stimulation of PBMCs” value in assay [3] was “higher percentage”.

`CN(C)CCCN1c2ccccc2Sc2ccc(Cl)cc21` [chlorpromazine, Chlorpromazine hydrochloride]: the “A5 peptide uptake by macrophages in the presence of inhibitor” value in assay [7] was “significantly less”. Consider “H6-SYTEQNVKL-ERR (HHHHHHSYTEQNVKLERR; CT30)”, for which, in assay [8], the Experimental rank stood at 85. Still for that read-out and setting: under “H6-VVEANWTML-ERR (HHHHHHVVEANWTMLERR; CT96)” stands 2; under “H6-SPKALAHNG-ERR (HHHHHHSPKALAHNGERR; CT37*)”, 1; under “H6-VYFVAGVRV-ERR (HHHHHHVYFVAGVRVERR; H6 and ERR flanks; CT71)”, 3. The same measure, in the same setting: under “H6-GPPGGFQEF-ERR [CT99] (HHHHHHGPPGGFQEFERR; CT99)” stands 53; under “H6-TY AIALINV-ERR (HHHHHHTYAIALINVERR; CT70)”, 29. Still for that read-out and setting: the figure for “H6-GYEAVVRLL-ERR (HHHHHHGYEAVVRLLERR; CT23)” is 77; for “H6-KYYAVNFSM-ERR [CT95] (HHHHHHKYYAVNFSMERR; CT95)” it is 59. Consider “H6-KGPKRDEQC-ERR (HHHHHHKGPKRDEQCERR; CT2)”, for which the Experimental rank in assay [8] was 65. Same read-out and setting: under “H6-TALPVGFSL-ERR (HHHHHHTALPVGFSLERR; CT90)” stands 79; under “H6-VVLETFYDL-ERR (HHHHHHVVLETFYDLERR; CT19)”, 56; under “H6-AYVNAIEKI-ERR (HHHHHHAYVNAIEKIERR; CT12)”, 93. The same measure, in the same setting: under “H6-LFVTVLEVI-ERR (HHHHHHLFVTVLEVIERR; CT26)” stands 91. On the same count and under the same terms, under “H6-SFQPTADEL-ERR (HHHHHHSFQPTADELERR; CT62)” stands 11; under “H6-IYLESVAIM-ERR (HHHHHHIYLESVAIMERR; CT78)”, 50.

On to “H6-SYATYLQPA-ERR (HHHHHHSYATYLQPAERR; CT63)”, for which the Experimental rank in assay [8] is given as 19.
